Experimental data published in patent publication US12227488B2, “Small molecule degraders of Helios and methods of use” (DANA-FARBER CANCER INSTITUTE, INC., priority 2018, dated 2025).

What was measured:
[1] = molecular target: T1, Helios (Mus musculus, UniProt P81183+Q8C7D2, I391V); experiment: Helios levels in isolated Crbn^I391V/I391V Tregs; assay type: cell-based, murine; settings: 2 μM, IL-2 and IL-4, 4 days
T1 construct: from tissue; host or cells: spleen (T cell subpopulations / CD4+ CD25+ Tregs) of Crbn I391V/I391V mice
Experimental: (§1) FIG. 9A-FIG. 9C are a series of graphs showing that Helios degradation in Tregs permits IFNγ production. Isolated Crbn^I391V/I391V Tregs were treated with 2 μM of compound 69, 5 ng/mL IL-2, and 20 ng/mL IL-4 for 4 days and then restimulated with PMA/ionomycin for 5 h. […] FIG. 9B is a bar graph showing the percent increase of IFNγ with treatment of compound 69.
(§2) Foxp3+ regulatory T cells were isolated by sorting for CD4+ CD25+ T cells from Crbn^I391V/I391V spleens, treated with 2 μM of compound 69, 5 ng/mL IL-2, and 20 ng/mL IL4 for 4 days and then restimulated with PMA/ionomycin for 5 h. Cells were then fixed/permeabilized and stained with fluorochrome-coupled antibodies. […] FIG. 9B is a bar graph showing the percent increase of IFNγ with treatment of compound 69.

[2] = molecular target: T2, CRBN and Helios (IKZF2) (Homo sapiens, UniProt Q96SW2+Q9UKS7); experiment: TR-FRET dimerization assay (CRBN-IKZF2 ternary complex formation); assay type: binding; settings: for TR-FRET-IKZF2 (Normalized to CC-885): n=1
T2 construct: His (N); Strep (N)
How it was run: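 BODIPY-labeled DDB1ΔB-CRBN and in vitro biotinylated IKZF2 were treated with increasing compound concentrations plus tracer Terbium-Streptavidin and incubated 15 min at rt. Recruitment was quantified as the 520/490 nm TR-FRET ratio; values are single measurements (n=1), each averaged from at least three technical replicates.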

[3] = molecular target: T3, Helios (Homo sapiens, UniProt Q96SW2+Q9UKS7); experiment: Immunoblot for Helios in Jurkat cells; assay type: cell-based
T3 construct: endogenous in cells; host or cells: Jurkat
Experimental: (§3) A focused library of imide analogs was synthesized and assessed for their ability to induce dimerization between CRBN and Helios in a time-resolved fluorescence energy transfer (TR-FRET) assay (FIG. 1A).
(§4) Cells were lysed in M-PER buffer (Thermo Scientific) containing protease/phosphatase inhibitor cocktail (Roche). Protein concentration was measured using a BCA assay (Pierce™) Equivalent amounts of each sample were loaded on 4-12% Bis-Tris gels (Invitrogen™) transferred to nitrocellulose membranes, and immunoblotted with the indicated antibodies. IRDye®800-labeled goat anti-rabbit IgG and IRDye®680-labeled goat anti-mouse IgG (LI-COR®) secondary antibodies were purchased from LI-COR®, and membranes were detected on an Odyssey® detection system (LI-COR® Biosciences).
as §4, with “Odyssey” for “Odyssey®”

[4] = molecular target: T4, GSPT1 (Homo sapiens, UniProt P15170+Q96SW2); experiment: Immunoblot for GSPT1 in Jurkat cells; assay type: cell-based; design: expressed in transfected cells; settings: wildtype or Crbn−/− Jurkat cells, 4 h treatment
Experimental: as §3, §4

[5] = molecular target: T1, Helios; experiment: Flow cytometry of Helios in splenic T cell subpopulations from Crbn^I391V/I391V mice; assay type: cell-based, murine; settings: 1 μM, 16 h
Experimental: (§5) FIG. 8A-FIG. 8B are a series of graphs depicting levels of Ikaros and Helios that were assessed by flow cytometry. […] FIG. 8B depicts levels of Ikaros and Helios of splenic T cell subpopulations from Crbn^I391V/I391V mice that were treated with 1 μM of indicated compounds for 16 h.
(§6) Splenocytes were fixed/permeabilized and stained with fluorochrome-coupled antibodies. FACS plots of murine splenocytes were stained for TCRβ, CD4, CD8, and FoxP3 (FIG. 8A).

[6] = molecular target: T5, Ikaros (Mus musculus, UniProt Q03267+Q8C7D2, I391V); experiment: Flow cytometry of Ikaros in splenic T cell subpopulations from Crbn^I391V/I391V mice; assay type: cell-based, murine; settings: 1 μM, 16 h
T5 construct: from tissue; host or cells: spleen (T cell subpopulations) of Crbn I391V/I391V mice
Experimental: as §5, §6

[7] = system: Foxp3+ regulatory T cells; experiment: IFNγ production of isolated Crbn^I391V/I391V Tregs after PMA/ionomycin restimulation; assay type: cell-based, murine; settings: 2 μM, 4 days, restimulated with PMA/ionomycin 5 h
Experimental: as §1, §2

[8] = molecular target: T6, Ikaros (Homo sapiens, UniProt Q13422+Q96SW2); experiment: Immunoblot for Ikaros in Jurkat cells; assay type: cell-based; settings: 4 h treatment
T6 construct: endogenous in cells; host or cells: Jurkat
Experimental: as §3, §4

[9] = molecular target: T7, IKZF1 (Homo sapiens, UniProt Q13422); experiment: Cellular degradation assay, eGFP-IKZF1Δ fusion with mCherry reporter in Flp-In 293 cells; assay type: cell-based; settings: for IKZF1 GFP/RFP Relative Abundance: 5 h incubation, n=1
T7 construct: expressed in transfected cells; host or cells: Flp-In 293
How it was run: (§7)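 Flp-In 293 cells stably expressing eGFP-tagged degron fusions with P2A-mCherry reporter were treated with compound titrations (0.5% DMSO) for 5 hours. Imaging quantified GFP-positive/mCherry-positive cell fraction per well; DC50 at 5 h from nonlinear variable-slope fit.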

[10] = system: IKZF2; experiment: Cellular degradation assay, eGFP-IKZF2Δ fusion with mCherry reporter in Flp-In 293 cells; assay type: cell-based; settings: for IKZF2 GFP/RFP Relative Abundance: 5 h incubation, n=1
How it was run: as §7

[11] = molecular target: T4, GSPT1; experiment: Cellular degradation assay, eGFP-GSPT1 fusion with mCherry reporter in Flp-In 293 cells; assay type: cell-based; design: expressed in transfected cells; host or cells: Flp-In 293; settings: half degradation at 5 h (DC50,5 h); triplicate, 11 point dose response
How it was run: as §7

[12] = compound concentration 2.00E−05
[13] = compound concentration 2.00E−06
[14] = compound concentration 2.00E−07
[15] = half degradation at 5 h (DC50,5 h), triplicate, 11 point dose response

T2 sequence (Q96SW2 whole entry): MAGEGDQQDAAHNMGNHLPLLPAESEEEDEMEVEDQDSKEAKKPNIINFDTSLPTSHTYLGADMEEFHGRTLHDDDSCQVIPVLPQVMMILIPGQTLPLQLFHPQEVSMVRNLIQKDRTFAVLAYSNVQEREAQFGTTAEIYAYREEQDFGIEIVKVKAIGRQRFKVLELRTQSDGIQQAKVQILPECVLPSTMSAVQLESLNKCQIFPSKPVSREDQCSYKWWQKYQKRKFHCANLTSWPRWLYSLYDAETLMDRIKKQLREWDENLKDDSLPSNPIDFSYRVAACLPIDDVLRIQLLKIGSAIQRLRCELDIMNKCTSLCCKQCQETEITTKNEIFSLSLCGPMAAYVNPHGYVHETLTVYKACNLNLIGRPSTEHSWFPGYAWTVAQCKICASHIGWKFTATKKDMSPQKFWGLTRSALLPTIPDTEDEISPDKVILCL
T2 sequence (Q9UKS7 whole entry): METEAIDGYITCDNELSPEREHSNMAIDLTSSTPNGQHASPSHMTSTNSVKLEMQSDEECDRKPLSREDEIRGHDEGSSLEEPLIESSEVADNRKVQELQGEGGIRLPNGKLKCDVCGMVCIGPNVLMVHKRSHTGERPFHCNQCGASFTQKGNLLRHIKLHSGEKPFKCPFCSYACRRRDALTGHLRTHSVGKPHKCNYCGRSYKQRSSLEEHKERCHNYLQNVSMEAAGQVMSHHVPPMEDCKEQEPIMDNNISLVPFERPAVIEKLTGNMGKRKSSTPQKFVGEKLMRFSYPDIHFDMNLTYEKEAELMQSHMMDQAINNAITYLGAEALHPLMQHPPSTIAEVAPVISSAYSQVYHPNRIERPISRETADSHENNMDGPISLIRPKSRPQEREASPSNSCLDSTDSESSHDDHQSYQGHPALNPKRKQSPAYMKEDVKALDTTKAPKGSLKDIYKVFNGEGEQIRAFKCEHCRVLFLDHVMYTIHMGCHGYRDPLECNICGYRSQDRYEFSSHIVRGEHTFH
T7 sequence (Q13422 83-213 isoform Q13422-7 limits assumed): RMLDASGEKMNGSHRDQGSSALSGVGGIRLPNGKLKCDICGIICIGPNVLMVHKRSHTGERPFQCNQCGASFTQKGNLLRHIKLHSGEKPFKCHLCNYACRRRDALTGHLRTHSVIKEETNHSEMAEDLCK
T7 sequence (Q96SW2 whole entry partner, the tested form may be a part): as the sequence (Q96SW2 whole entry) above
T7 sequence (Q16531 2-1140 partner limits assumed): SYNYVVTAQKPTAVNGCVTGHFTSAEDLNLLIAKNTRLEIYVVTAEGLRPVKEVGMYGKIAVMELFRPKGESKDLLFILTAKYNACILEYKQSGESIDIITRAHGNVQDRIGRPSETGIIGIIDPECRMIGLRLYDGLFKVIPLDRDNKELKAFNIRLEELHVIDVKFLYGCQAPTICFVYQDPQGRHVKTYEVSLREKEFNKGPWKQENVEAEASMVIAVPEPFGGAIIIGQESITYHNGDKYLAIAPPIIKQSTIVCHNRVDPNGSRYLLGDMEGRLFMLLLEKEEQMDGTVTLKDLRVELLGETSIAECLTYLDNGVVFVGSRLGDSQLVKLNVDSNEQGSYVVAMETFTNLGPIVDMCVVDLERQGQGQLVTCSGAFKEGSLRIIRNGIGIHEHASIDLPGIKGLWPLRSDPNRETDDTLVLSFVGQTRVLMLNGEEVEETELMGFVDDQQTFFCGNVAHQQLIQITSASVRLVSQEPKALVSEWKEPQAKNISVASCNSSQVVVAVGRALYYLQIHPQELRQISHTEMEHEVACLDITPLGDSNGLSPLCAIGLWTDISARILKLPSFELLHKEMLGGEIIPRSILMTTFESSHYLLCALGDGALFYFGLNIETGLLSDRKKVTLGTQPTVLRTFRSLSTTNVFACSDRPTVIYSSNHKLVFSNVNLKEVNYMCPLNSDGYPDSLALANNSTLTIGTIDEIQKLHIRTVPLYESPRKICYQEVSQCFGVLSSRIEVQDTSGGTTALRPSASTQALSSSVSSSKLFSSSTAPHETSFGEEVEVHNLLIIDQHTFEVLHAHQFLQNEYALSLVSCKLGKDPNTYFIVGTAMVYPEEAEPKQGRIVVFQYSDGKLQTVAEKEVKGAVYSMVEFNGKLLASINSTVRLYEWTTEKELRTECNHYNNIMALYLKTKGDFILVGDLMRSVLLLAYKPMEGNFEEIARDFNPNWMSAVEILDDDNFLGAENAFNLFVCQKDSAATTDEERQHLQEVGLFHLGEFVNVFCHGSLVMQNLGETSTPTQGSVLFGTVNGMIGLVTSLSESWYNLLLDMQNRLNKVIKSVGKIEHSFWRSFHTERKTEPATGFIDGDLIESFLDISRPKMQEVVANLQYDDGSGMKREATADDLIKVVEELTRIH
T4 sequence (P15170 whole entry): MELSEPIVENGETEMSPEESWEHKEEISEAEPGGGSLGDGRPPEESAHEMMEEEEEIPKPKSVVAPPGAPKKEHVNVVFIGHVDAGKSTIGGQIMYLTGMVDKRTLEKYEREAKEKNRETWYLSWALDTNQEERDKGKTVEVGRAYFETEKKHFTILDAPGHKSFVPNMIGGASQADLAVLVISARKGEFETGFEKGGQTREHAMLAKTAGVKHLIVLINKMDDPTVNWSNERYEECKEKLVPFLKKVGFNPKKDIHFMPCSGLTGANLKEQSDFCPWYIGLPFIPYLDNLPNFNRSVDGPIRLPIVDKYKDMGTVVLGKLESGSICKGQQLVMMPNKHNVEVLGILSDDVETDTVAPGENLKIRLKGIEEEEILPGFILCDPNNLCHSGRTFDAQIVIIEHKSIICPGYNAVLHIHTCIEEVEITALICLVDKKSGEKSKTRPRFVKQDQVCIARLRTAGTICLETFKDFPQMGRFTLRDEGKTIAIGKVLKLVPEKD
T4 sequence (Q96SW2 whole entry): as the sequence (Q96SW2 whole entry) above
T4 sequence (Q16531 whole entry partner): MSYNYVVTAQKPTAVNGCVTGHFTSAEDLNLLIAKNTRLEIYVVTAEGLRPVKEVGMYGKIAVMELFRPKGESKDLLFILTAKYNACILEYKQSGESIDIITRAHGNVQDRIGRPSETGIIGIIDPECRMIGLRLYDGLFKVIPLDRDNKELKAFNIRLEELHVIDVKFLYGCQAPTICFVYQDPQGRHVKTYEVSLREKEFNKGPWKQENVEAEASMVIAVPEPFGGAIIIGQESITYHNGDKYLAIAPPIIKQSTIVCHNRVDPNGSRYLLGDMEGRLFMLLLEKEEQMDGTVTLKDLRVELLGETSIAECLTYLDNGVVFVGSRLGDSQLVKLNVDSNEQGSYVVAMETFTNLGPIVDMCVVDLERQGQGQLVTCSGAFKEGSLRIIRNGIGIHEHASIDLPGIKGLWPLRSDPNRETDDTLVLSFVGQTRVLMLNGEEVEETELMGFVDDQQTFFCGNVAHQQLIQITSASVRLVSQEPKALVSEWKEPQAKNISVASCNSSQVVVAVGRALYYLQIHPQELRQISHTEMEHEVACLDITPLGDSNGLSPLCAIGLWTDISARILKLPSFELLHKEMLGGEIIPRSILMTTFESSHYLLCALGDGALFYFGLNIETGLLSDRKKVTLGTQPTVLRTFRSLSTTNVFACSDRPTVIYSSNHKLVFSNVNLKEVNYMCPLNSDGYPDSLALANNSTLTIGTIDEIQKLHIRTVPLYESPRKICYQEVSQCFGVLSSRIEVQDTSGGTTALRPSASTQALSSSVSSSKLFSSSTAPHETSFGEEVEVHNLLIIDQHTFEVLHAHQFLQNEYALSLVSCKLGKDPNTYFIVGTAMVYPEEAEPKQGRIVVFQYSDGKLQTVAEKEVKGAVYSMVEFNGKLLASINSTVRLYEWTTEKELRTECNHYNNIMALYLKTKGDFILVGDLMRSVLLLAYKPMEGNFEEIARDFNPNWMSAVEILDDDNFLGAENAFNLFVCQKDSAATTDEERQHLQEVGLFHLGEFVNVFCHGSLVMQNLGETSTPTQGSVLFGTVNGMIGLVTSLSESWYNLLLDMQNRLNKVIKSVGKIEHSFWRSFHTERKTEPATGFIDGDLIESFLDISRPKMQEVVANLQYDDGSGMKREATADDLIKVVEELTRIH
T3 sequence (Q9UKS7 whole entry): as the sequence (Q9UKS7 whole entry) above
T3 sequence (Q96SW2 whole entry): as the sequence (Q96SW2 whole entry) above
T3 sequence (Q16531 whole entry partner): as the sequence (Q16531 whole entry partner) above
T6 sequence (Q13422 whole entry): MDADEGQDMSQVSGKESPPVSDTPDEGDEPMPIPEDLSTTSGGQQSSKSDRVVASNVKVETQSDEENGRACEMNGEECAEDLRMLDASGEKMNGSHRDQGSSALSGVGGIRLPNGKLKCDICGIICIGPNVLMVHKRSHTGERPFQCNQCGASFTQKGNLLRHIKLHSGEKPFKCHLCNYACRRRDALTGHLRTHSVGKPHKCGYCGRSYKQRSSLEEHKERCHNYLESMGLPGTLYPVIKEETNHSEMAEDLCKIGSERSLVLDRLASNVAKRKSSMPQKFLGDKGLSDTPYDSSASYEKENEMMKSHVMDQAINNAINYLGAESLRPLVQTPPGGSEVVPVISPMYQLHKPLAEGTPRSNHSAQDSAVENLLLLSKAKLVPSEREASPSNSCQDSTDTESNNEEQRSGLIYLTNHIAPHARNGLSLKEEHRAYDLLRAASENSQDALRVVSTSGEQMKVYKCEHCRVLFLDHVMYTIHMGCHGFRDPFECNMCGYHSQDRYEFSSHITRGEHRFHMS
T6 sequence (Q96SW2 whole entry): as the sequence (Q96SW2 whole entry) above
T6 sequence (Q16531 whole entry partner): as the sequence (Q16531 whole entry partner) above

Structure (SMILES): Cc1ccc(NC(=O)NC(C)(C)c2cccc(NC3=CC(=O)N(C4CCC(=O)NC4=O)C3=O)c2)cc1Cl (stereo not drawn) [Compound 69, 1-(3-chloro-4-methylphenyl)-3-(2-(3-((1-(2,6-dioxopiperidin-3-yl)-2,5-dioxo-2,5-dihydro-1H-pyrrol-3-yl)amino)phenyl)propan-2-yl)urea]
- Helios degradation in isolated Tregs [1]: able to induce degradation of Helios in Tregs
- TR-FRET signal (520/490 ratio), CRBN-Helios dimerization, in words ([2]; FIG. 1B, 2A, 5): induced higher TR-FRET signals than CC-885
- TR-FRET-IKZF2 (Normalized to CC-885) ([2]; compound concentration 6.6667E−05): 2.037
- TR-FRET-IKZF2 (Normalized to CC-885) ([2]; compound concentration 6.6667E−06): 1.970
- TR-FRET-IKZF2 (Normalized to CC-885) ([2]; compound concentration 6.6667E−07 (667 nM)): 1.737
- Helios degradation on co-treatment with proteasome or NAE inhibitor ([3]; Jurkat cells, 1 μM compound with 1 μM bortezomib, MLN4924 or carfilzomib, 4 h): Helios degradation is dependent on the proteasome
- Helios degradation (immunoblot) ([3]; wildtype or Crbn−/− Jurkat cells, 4 h treatment): induced CRBN-dependent Helios degradation
- GSPT1 stability (immunoblot) [4]: did not affect the stability of GSPT1 or Ikaros
- Helios degradation in regulatory T cells (flow cytometry) [5]: capable of inducing degradation of Helios
- Ikaros degradation in regulatory T cells (flow cytometry) [6]: not Ikaros
- IFNγ production [7]: increased production of IFNγ upon restimulation
- Ikaros degradation (immunoblot) [8]: did not affect the stability of GSPT1 or Ikaros
- IKZF1 GFP/RFP Relative Abundance [9, 12]: 0.086
- IKZF1 GFP/RFP Relative Abundance [9, 13]: 0.140
- IKZF1 GFP/RFP Relative Abundance [9, 14]: 0.132
- DC50 [9, 15]: 14 nM
- IKZF2 GFP/RFP Relative Abundance [10, 12]: 0.032
- IKZF2 GFP/RFP Relative Abundance [10, 13]: 0.013
- IKZF2 GFP/RFP Relative Abundance [10, 14]: 0.028
- DC50 [10, 15]: 3.6 nM
- DC50 [11]: > 1000 nM
